Measurements reported in US12435068B2, “Anthelmintic compounds” (Elanco Animal Health GmBh, priority 2018, dated 2025).
Converted amounts (≈) assume the structure as drawn.

How the values were obtained:
[1] = test system: Dirofilaria immitis microfilariae; experiment: In Vitro Assay 2: Dirofilaria immitis microfilariae (DIROIM L1) motility; type: cell-based; conditions: 72 h, read-out: EC50 ppm
C. elegans Slo-1a = C. elegans Slo-1a (Caenorhabditis elegans, UniProt Q95V25)
Method: Cells were cultured at 37° C. and 5% CO2 in MEMalpha with Gutamax I (Invitrogen, Nr.: 32571), supplemented with 10% (v/v) heat inactivated fetal bovine serum (Invitrogen, Nr.: 10500), G418 (1 mg/ml, Invitrogen, Nr.: 10131). Cells were detached using Accutase (Sigma, Nr.: A6964).
Membrane Potential Measurements
Laboratory compound testing was performed on 384-well microtiter plates (MTPs, Greiner, Nr.: 781092). 8000 cells/well were plated onto 384-well MTPs and cultured for 20 to 24 hours at 37° C. and 5% CO2. After removal of the cell culture medium, the cells were washed once with tyrode (150 mM NaCl, 0.3 mM KCl, 2 mM CaCl2, 1 mM MgCl2, 0.8 mM NaH2PO4, 5 mM Glucose, 28 mM Hepes, pH 7.4) and then loaded with the voltage sensitive dye of the Membrane Potential Assay Kit diluted in tyrode for 1 h at room temperature.
After starting the measurement of fluorescence using a FLIPR Tetra (Molecular Devices, Exc. 510-545 nm, Emm. 565-625 nm), test compounds were added followed by the addition of KCl tyrode (final assay concentration: 70 mM KCl, 2 mM CaCl2, 1 mM MgCl2, 0.8 mM NaH2PO4, 5 mM Glucose, 28 mM Hepes, pH 7.4, including the voltage sensitive dye). The measurement was completed after 7 minutes.

[2] = test system: Dirofilaria immitis larvae; experiment: In Vitro Assay 3: Dirofilaria immitis (DIROIM L4) larval motility; type: cell-based; conditions: 72 h, read-out: EC50 ppm

C. elegans Slo-1a, sequence (Q95V25 whole entry): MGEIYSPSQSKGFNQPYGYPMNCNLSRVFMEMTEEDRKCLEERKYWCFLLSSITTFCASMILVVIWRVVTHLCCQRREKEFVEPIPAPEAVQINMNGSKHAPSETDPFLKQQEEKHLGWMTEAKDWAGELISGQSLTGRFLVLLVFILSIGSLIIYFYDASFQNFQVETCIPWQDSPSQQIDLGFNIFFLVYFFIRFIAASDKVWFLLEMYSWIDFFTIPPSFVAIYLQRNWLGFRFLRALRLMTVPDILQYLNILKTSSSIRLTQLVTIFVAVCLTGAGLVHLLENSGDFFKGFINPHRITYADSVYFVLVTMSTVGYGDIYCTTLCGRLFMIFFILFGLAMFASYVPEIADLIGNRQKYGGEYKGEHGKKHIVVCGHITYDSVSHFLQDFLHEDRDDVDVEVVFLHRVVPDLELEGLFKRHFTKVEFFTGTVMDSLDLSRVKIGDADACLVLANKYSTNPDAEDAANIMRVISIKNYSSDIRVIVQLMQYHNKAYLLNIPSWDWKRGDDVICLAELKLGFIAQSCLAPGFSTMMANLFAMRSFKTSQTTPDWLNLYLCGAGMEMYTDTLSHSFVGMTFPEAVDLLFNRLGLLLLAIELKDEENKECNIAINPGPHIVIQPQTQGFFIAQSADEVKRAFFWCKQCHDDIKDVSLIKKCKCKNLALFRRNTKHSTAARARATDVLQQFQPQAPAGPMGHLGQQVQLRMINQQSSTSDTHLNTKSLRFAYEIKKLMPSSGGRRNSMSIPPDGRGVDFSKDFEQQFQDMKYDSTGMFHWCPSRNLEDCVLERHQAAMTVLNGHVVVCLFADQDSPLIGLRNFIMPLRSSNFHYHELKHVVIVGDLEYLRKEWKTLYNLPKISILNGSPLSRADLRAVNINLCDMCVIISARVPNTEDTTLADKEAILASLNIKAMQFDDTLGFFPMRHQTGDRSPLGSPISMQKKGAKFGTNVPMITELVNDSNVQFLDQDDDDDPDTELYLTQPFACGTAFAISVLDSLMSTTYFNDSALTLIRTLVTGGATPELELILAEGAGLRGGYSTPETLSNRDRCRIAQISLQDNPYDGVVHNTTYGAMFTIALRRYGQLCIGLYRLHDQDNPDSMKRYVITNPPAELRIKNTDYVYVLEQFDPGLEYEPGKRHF

| Compound | EC50 [1] | EC50 (C. elegans Slo-1a) | EC50 [2] |
| --- | --- | --- | --- |
| CC(C)c1c(C(=O)N[C@H]2CCOc3ccccc32)sc2c(-c3cccc(Cl)c3Cl)cccc12 [Example Compound S1-3, 7-(2,3-Dichlorophenyl)-N-[(4S)-3,4-dihydro-2H-chromen-4-yl]-3-isopropyl-1-benzothiophene-2-carboxamide] | 0.01 µg/mL (≈ 0.0201 µM) | 0.631 nM | 0.03 µg/mL (≈ 0.0604 µM) |
| CC(C)c1c(C(=O)N[C@H]2CCOc3ccccc32)sc2c(-c3cccc(Cl)c3)cccc12 [Example Compound S1-2, 7-(3-Chlorophenyl)-N-[(4S)-3,4-dihydro-2H-chromen-4-yl]-3-isopropyl-1-benzothiophene-2-carboxamide] | 0.03 µg/mL (≈ 0.0649 µM) | 3.98 nM | > 0.08 µg/mL |
| CC1=C(C(=O)N[C@H]2CCCc3ccccc32)C(C)c2cccc(-c3cc(F)cc(F)c3F)c2O1 (stereo partly drawn) [Example Compound S8b-2, 2,4-Dimethyl-N-[(1S)-1,2,3,4-tetrahydronaphthalen-1-yl]-8-(2,3,5-trifluorophenyl)-4H-chromene-3-carboxamide] | 0.08 µg/mL (≈ 0.173 µM) | > 50100 nM | 1.26 µg/mL (≈ 2.72 µM) |
| CC1=C(C(=O)N[C@H]2CCc3ccccc32)C(C)c2cccc(-c3cc(Cl)cc(Cl)c3)c2O1 (stereo partly drawn) [Example Compound S8b-1, 8-(3,5-Dichlorophenyl)-N-[(1S)-2,3-dihydro-1H-inden-1-yl]-2,4-dimethyl-4H-chromene-3-carboxamide] | 1.47 µg/mL (≈ 3.17 µM) | – | > 0.4 µg/mL |
| CC(C)c1c(C(=O)N[C@H]2CCOc3ccccc32)c(=O)oc2c(-c3cc(Cl)cc(Cl)c3)cccc12 [Example Compound S8a-2, 8-(3,5-Dichlorophenyl)-N-[(4S)-3,4-dihydro-2H-chromen-4-yl]-2-oxo-4-(propan-2-yl)-2H-chromene-3-carboxamide] | < 0.0032 µg/mL | 1.26 nM | 0.18 µg/mL (≈ 0.354 µM) |
| CN(C)c1c(C(=O)N[C@H]2CCOc3ccccc32)sc2c(-c3cccc(Cl)c3Cl)cccc12 [Example Compound S1-7, 7-(2,3-Dichlorophenyl)-N-[(4S)-3,4-dihydro-2H-chromen-4-yl]-3-(dimethylamino)-1-benzothiophene-2-carboxamide] | 0.11 µg/mL (≈ 0.221 µM) | 10 nM | – |
| COc1c(C(=O)N[C@H]2CCOc3ccccc32)sc2c(-c3cccc(Cl)c3Cl)cccc12 [Example Compound S1-11, 7-(2,3-Dichlorophenyl)-N-[(4S)-3,4-dihydro-2H-chromen-4-yl]-3-methoxy-1-benzothiophene-2-carboxamide] | 0.04 µg/mL (≈ 0.0826 µM) | 31.6 nM | > 0.08 µg/mL |
| CC(C)c1c(C(=O)N[C@H]2CCc3ccccc32)ccc2c1nnn2-c1ccccc1Cl [Example Compound S4-10, 1-(2-Chlorophenyl)-N-[(1S)-2,3-dihydro-1H-inden-1-yl]-4-(propan-2-yl)-1H-benzotriazole-5-carboxamide] | > 2 µg/mL | 3160 nM | – |
| O=C(N[C@H]1CCOc2ccccc21)c1ccc2nc(-c3cccc(Cl)c3Cl)cnc2c1 [Example Compound S9-4, 2-(2,3-Dichlorophenyl)-N-[(4S)-3,4-dihydro-2H-chromen-4-yl]quinoxaline-6-carboxamide] | 0.32 µg/mL (≈ 0.711 µM) | 20 nM | – |
| O=C(N[C@H]1CCOc2ccccc21)C1=Cc2cccc(-c3cc(Cl)cc(Cl)c3)c2OC1 [Example Compound S8a-4, 8-(3,5-Dichlorophenyl)-N-[(4S)-3,4-dihydro-2H-chromen-4-yl]-2H-chromene-3-carboxamide] | > 2 µg/mL | 20 nM | – |
| O=C(N[C@H]1CCOc2ccccc21)c1ccc2c(-c3cccc(Cl)c3Cl)cccc2c1 [Example Compound S6-1, 5-(2,3-Dichlorophenyl)-N-[(4S)-3,4-dihydro-2H-chromen-4-yl]naphthalene-2-carboxamide] | 0.63 µg/mL (≈ 1.41 µM) | 79.4 nM | – |
| O=C(N[C@H]1CCOc2ccccc21)c1cnc2c(cnn2-c2c(F)cccc2F)c1Cl [Example Compound S4-1, 4-Chloro-1-(2,6-difluorophenyl)-N-[(4S)-3,4-dihydro-2H-chromen-4-yl]-1H-pyrazolo[3,4-b]pyridine-5-carboxamide] | 0.41 µg/mL (≈ 0.93 µM) | 1120 nM | – |
| O=C(N[C@H]1CCOc2ccccc21)C1=Cc2cccc(-c3cccc(Cl)c3Cl)c2OC1 [Example Compound S8a-5, 8-(2,3-Dichlorophenyl)-N-[(4S)-3,4-dihydro-2H-chromen-4-yl]-2H-chromene-3-carboxamide] | 0.09 µg/mL (≈ 0.199 µM) | 5.01 nM | 0.04 µg/mL (≈ 0.0884 µM) |
| O=C(N[C@H]1CCOc2ccccc21)c1sc2c(-c3cc(Cl)cc(Cl)c3)ccc(F)c2c1N1CCOCC1 [Example Compound S1-18, 7-(3,5-Dichlorophenyl)-N-[(4S)-3,4-dihydro-2H-chromen-4-yl]-4-fluoro-3-(morpholin-4-yl)-1-benzothiophene-2-carboxamide] | 0.27 µg/mL (≈ 0.484 µM) | 126 nM | – |
| CC(C)c1c(C(=O)N[C@H]2CCc3ccccc32)ccc2c1nnn2-c1ccccc1 [Example Compound S4-7, N-[(1S)-2,3-Dihydro-1H-inden-1-yl]-1-phenyl-4-(propan-2-yl)-1H-benzotriazole-5-carboxamide] | > 2 µg/mL | 2000 nM | – |
| Cn1c(C(=O)N[C@H]2CCOc3ccccc32)nc2c(-c3cccc(Cl)c3Cl)ccnc21 [Example Compound S2-1, 7-(2,3-Dichlorophenyl)-N-[(4S)-3,4-dihydro-2H-chromen-4-yl]-3-methyl-3H-imidazo[4,5-b]pyridine-2-carboxamide] | 0.63 µg/mL (≈ 1.39 µM) | 31.6 nM | – |
| CC(C)n1c(C(=O)N[C@H]2CCOc3ccccc32)cc2c(-c3cc(F)cc(F)c3F)cccc21 [Example Compound S2-6, N-[(4S)-3,4-Dihydro-2H-chromen-4-yl]-1-(propan-2-yl)-4-(2,3,5-trifluorophenyl)-1H-indole-2-carboxamide] | 0.0086 µg/mL (≈ 0.0185 µM) | 15.8 nM | 0.08 µg/mL (≈ 0.172 µM) |
| CC(C)n1c(C(=O)N[C@H]2CCOc3ccccc32)cc2c(-c3cccc(Cl)c3Cl)cccc21 [Example Compound S2-7, 4-(2,3-Dichlorophenyl)-N-[(4S)-3,4-dihydro-2H-chromen-4-yl]-1-(propan-2-yl)-1H-indole-2-carboxamide] | 0.01 µg/mL (≈ 0.0209 µM) | 20 nM | – |
| CC(C)c1c(C(=O)N[C@H]2CCOc3ccccc32)nc2c(-c3cccc(Cl)c3Cl)cccn12 [Example Compound S3-1, 8-(2,3-Dichlorophenyl)-N-[(4S)-3,4-dihydro-2H-chromen-4-yl]-3-(propan-2-yl)imidazo[1,2-a]pyridine-2-carboxamide] | 0.63 µg/mL (≈ 1.31 µM) | 251 nM | – |
| COc1c(C(=O)N[C@H]2CCOc3ccccc32)sc2c(-c3cc(Cl)cc(Cl)c3)nccc12 [Example Compound S1-14, 7-(3,5-Dichlorophenyl)-N-[(4S)-3,4-dihydro-2H-chromen-4-yl]-3-methoxythieno[2,3-c]pyridine-2-carboxamide] | 2 µg/mL (≈ 4.12 µM) | 794 nM | – |
| CN(C)c1c(C(=O)N[C@H]2CCOc3ccccc32)sc2c(-c3cc(Cl)cc(Cl)c3)cccc12 [Example Compound S1-5, 7-(3,5-Dichlorophenyl)-N-[(4S)-3,4-dihydro-2H-chromen-4-yl]-3-(dimethylamino)-1-benzothiophene-2-carboxamide] | 0.25 µg/mL (≈ 0.503 µM) | 25.1 nM | – |
| O=C(N[C@H]1CCOc2ccccc21)c1sc2c(-c3cccc(Cl)c3Cl)cccc2c1Cl [Example Compound S1-12, 3-Chloro-7-(2,3-dichlorophenyl)-N-[(4S)-3,4-dihydro-2H-chromen-4-yl]-1-benzothiophene-2-carboxamide] | 0.1 µg/mL (≈ 0.205 µM) | 158 nM | – |
| Cc1nn(-c2c(F)cccc2F)c2ncc(C(=O)N[C@H]3CCOc4ccccc43)c(N(C)C)c12 [Example Compound S4-3, 1-(2,6-Difluorophenyl)-N-[(4S)-3,4-dihydro-2H-chromen-4-yl]-4-(dimethylamino)-3-methyl-1H-pyrazolo[3,4-b]pyridine-5-carboxamide] | 1.82 µg/mL (≈ 3.93 µM) | 158 nM | – |
| CC(C)C1=C(C(=O)N[C@H]2CCOc3ccccc32)COc2c1cccc2-c1cc(Cl)cc(Cl)c1 [Example Compound S8a-1, 8-(3,5-Dichlorophenyl)-N-[(4S)-3,4-dihydro-2H-chromen-4-yl]-4-(propan-2-yl)-2H-chromene-3-carboxamide] | < 0.0032 µg/mL | 3.16 nM | 0.04 µg/mL (≈ 0.0809 µM) |
| CN(C)c1c(C(=O)N[C@H]2CCOc3ccccc32)cnc2c1cnn2-c1c(F)cccc1F [Example Compound S4-5, 1-(2,6-Difluorophenyl)-N-[(4S)-3,4-dihydro-2H-chromen-4-yl]-4-(dimethylamino)-1H-pyrazolo [3,4-b]pyridine-5-carboxamide] | > 2 µg/mL | 398 nM | – |
